± gives the standard deviation of the averaged measurements.
Test system: HEK293 NF-kB-luciferase reporter cells
Assay: NF-kB luciferase reporter activity, robust Z-score vs plate median (robust Z-score (log luminescence)); higher = stronger NF-kB reporter activation
Conditions: TNF treatment time 8.5 h, transfection time 72 h
Procedure: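 Primary screen of an Ambion Pre-miR miRNA mimic library (miRBase v8.0, 1.6 pmol/well, 384-well, duplicate) reverse-transfected into HEK293 cells stably expressing a 5x NF-kB firefly luciferase reporter. After 72 h the cells were treated with vehicle or TNF (40 ng/mL) for 8.5 h and luminescence was read (BriteLite). Raw luminescence was log-transformed and converted to a robust Z-score per plate: (x - plate median)/plate MAD. Sequence given is the mature miRNA strand of the double-stranded mimic.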

Sequence	NF-kB luciferase reporter activity (TNF 0 ng/mL)	NF-kB luciferase reporter activity (TNF 40 ng/mL)
AACAUUCAUUGUUGUCGGUGGGUU	0.371 ± 0.31	-0.631 ± 0.082
AUUACAUGGCCAAUCUC	0.0633 ± 0.4	0.754 ± 0.24
UGAAGGUCUACUGUGUGCCAG	-0.779 ± 1.1	-1.55 ± 0.32
ACAAAGUGCUUCCCUUUAGAGUGU	-0.845 ± 0.78	-0.799 ± 0.018
CAGCAGCAAUUCAUGUUUUGAA	1.16 ± 0.43	0.65 ± 0.09
CCUCUGGGCCCUUCCUCCAG	2.88 ± 0.89	-0.776 ± 0.1
UAAACGUGGAUGUACUUGCUUU	-0.000139 ± 0.48	0.83 ± 0.16
AACUGGCCCUCAAAGUCCCGCUUU	1.11 ± 0.46	-0.934 ± 0.19
UAGCAGCGGGAACAGUUCUGCAG	0.878 ± 0.18	0.834 ± 0.021
UUCACAGGGAGGUGUCAUUUAU	0.436 ± 0.13	0.0761 ± 0.082
AUCAUAGAGGAAAAUCCACGU	-0.604 ± 0.17	-0.743 ± 0.14
GAAGUUGUUCGUGGUGGAUUCG	-0.0557 ± 0.33	-0.602 ± 0.087
GCACAUUACACGGUCGACCUCU	-0.263 ± 0.11	1.28 ± 0.042
UAAUACUGCCUGGUAAUGAUGAC	0.744 ± 0.84	1.37 ± 0.22
UGAUUGUAGCCUUUUGGAGUAGA	-1.51 ± 0.46	-0.927 ± 0.034
AACUGGCCUACAAAGUCCCAG	0.721 ± 0.19	-1.18 ± 0.17
AAAGUGCAUCUUUUUAGAGGAU	-0.977 ± 0.6	-0.416 ± 0.079
GGAGAAAUUAUCCUUGGUGUGU	0.189 ± 0.13	0.256 ± 0.16
GAGGUUGUCCGUGGUGAGUUCG	-0.468 ± 0.88	-2.08 ± 0.48
CAACGGAAUCCCAAAAGCAGCU	0.539 ± 0.19	1.2 ± 0.21
AUCAUAGAGGAAAAUCCAUGUU	-0.92 ± 0.38	-1.03 ± 0.066
CAAAGCGCUUCCCUUUGGAGC	0.207 ± 0.18	0.305 ± 0.0055

Sequence	NF-kB luciferase reporter activity (TNF 0 ng/mL)	NF-kB luciferase reporter activity (TNF 40 ng/mL)
AAAGUGCUUCCUUUUUGAGGG	-1.7 ± 0.2	-0.497 ± 0.23
UCAGGCUCAGUCCCCUCCCGAU	-0.315 ± 0.14	-0.227 ± 0.1
AAUAAUACAUGGUUGAUCUUU	-0.785 ± 0.09	0.0536 ± 0.043
AGUGACAUCACAUAUACGGCAGC	-1.06 ± 0.48	-2.733 ± 0.0029
CAGUGCAAUAGUAUUGUCAAAGC	0.753 ± 0.32	0.85 ± 0.028
CUUUCAGUCGGAUGUUUACAGC	-0.449 ± 0.15	1 ± 0.025
AGACCCUGGUCUGCACUCUAU	0.885 ± 0.42	0.7 ± 0.065
UGAUUGGUACGUCUGUGGGUAGA	-0.152 ± 0.091	-0.9703 ± 0.0044
UCACUCCUCUCCUCCCGUCUUCU	2.53 ± 0.2	1.87 ± 0.1
GCAAAGCACACGGCCUGCAGAGA	-0.287 ± 0.28	-0.658 ± 0.027
UGUCUGCCCGCAUGCCUGCCUCU	1.07 ± 0.88	0.822 ± 0.046
CUGUGCGUGUGACAGCGGCUGA	0.091 ± 0.43	-2.3857 ± 0.00042
UCUUGGAGUAGGUCAUUGGGUGG	1.37 ± 0.57	0.913 ± 0.027
UCCGUCUCAGUUACUUUAUAGCC	0.757 ± 0.51	0.334 ± 0.055
AAAGUGCUUCCCUUUGGACUGU	-1.29 ± 0.15	-0.57 ± 0.16
CCUCUAGAUGGAAGCACUGUCU	-0.0988 ± 0.27	0.749 ± 0.033
UCUGCAAAGGGAAGCCCUUU	0.625 ± 1.3	0.788 ± 0.045
AUCGUGCAUCCUUUUAGAGUGU	4.81 ± 0.46	0.331 ± 0.0088
AAACCGUUACCAUUACUGAGUUU	1.13 ± 0.58	0.947 ± 0.054
UUAAGACUUGCAGUGAUGUUUAA	-0.92 ± 0.38	0.155 ± 0.07
UAUGGCUUUUCAUUCCUAUGUG	-0.314 ± 0.58	-0.369 ± 0.0092
ACAAAGUGCUUCCCUUUAGAGU	-1.29 ± 0.15	-0.471 ± 0.097

Sequence	NF-kB luciferase reporter activity (TNF 0 ng/mL)	NF-kB luciferase reporter activity (TNF 40 ng/mL)
AUCGUGCAUCCCUUUAGAGUGUU	4.42 ± 0.37	0.437 ± 0.046
AAGUGCUGUCAUAGCUGAGGUC	-0.706 ± 0.31	-0.185 ± 0.21
AAAGUGCUUCCUUUUAGAGGG	-1.32 ± 0.33	-0.578 ± 0.11
AAUUGCACUUUAGCAAUGGUGA	0.232 ± 0.073	-0.707 ± 0.14
UUUUGCACCUUUUGGAGUGAA	1.1 ± 0.92	-0.163 ± 0.01
UUAUCAGAAUCUCCAGGGGUAC	-0.469 ± 0.36	-0.796 ± 0.17
CGAAUGUUGCUCGGUGAACCCCU	-1.7 ± 0.2	-2.17 ± 0.28
GUGAAAUGUUUAGGACCACUAG	0.966 ± 1.4	0.9884 ± 0.0031
GUCAACACUUGCUGGUUUCCUC	-0.0513 ± 0.073	-0.799 ± 0.029
UAGGCAGUGUCAUUAGCUGAUUG	2.71 ± 0.93	-1.42 ± 0.053
UGGUUGACCAUAGAACAUGCGC	-0.133 ± 0.5	-2.27 ± 0.2
UGAAACAUACACGGGAAACCUCUU	0.49 ± 0.56	-0.403 ± 0.11
UAAGUGCUUCCAUGUUUGAGUGU	-1.48 ± 0.11	-0.618 ± 0.12
AAUAUAACACAGAUGGCCUGU	0.148 ± 0.35	0.874 ± 0.29
UCUCACACAGAAAUCGCACCCGUC	0.103 ± 1.2	0.598 ± 0.025
CUGGACUUGGAGUCAGAAGGCC	-1.02 ± 0.24	-0.191 ± 0.11
CAGCAGCACACUGUGGUUUGU	0.765 ± 0.17	0.0663 ± 0.052
UCAGUGCAUCACAGAACUUUGU	0.225 ± 0.32	0.0758 ± 0.04
AAUCCUUGGAACCUAGGUGUGAGU	0.598 ± 0.14	0.0708 ± 0.057
GAAGGCGCUUCCCUUUAGAGC	-0.845 ± 0.78	-0.47 ± 0.02
AAAGCGCUUCUCUUUAGAGGA	-0.221 ± 1.4	0.82217 ± 0.00059
AUCAGCAAACAUUUAUUGUGUG	-0.389 ± 0.14	-0.5 ± 0.044

Sequence	NF-kB luciferase reporter activity (TNF 0 ng/mL)	NF-kB luciferase reporter activity (TNF 40 ng/mL)
UAAGUGCUUCCAUGUUUUGGUGA	-1.29 ± 0.15	-0.801 ± 0.13
AGAUCGACCGUGUUAUAUUCGC	0.225 ± 0.32	-0.0562 ± 0.026
UGCUGACUCCUAGUCCAGGGC	-1.7 ± 0.2	-3.27 ± 0.18
UCCCUGAGACCCUUUAACCUGUG	0.417 ± 0.12	1.32 ± 0.15
CUUUUUGCGGUCUGGGCUUGC	0.334 ± 0.36	-0.65 ± 0.076
AGAGGUAUAGGGCAUGGGAAAA	-0.25 ± 0.57	-1.06 ± 0.24
CCCAGAUAAUGGCACUCUCAA	-0.57 ± 0.39	-0.306 ± 0.12
AUCGGGAAUGUCGUGUCCGCC	1.11 ± 0.67	0.676 ± 0.033
AUCAUGAUGGGCUCCUCGGUGU	-0.346 ± 1.1	-0.71 ± 0.099
UAAGGCACCCUUCUGAGUAGA	-1.29 ± 0.15	-3.27 ± 0.24
AUUGACACUUCUGUGAGUAG	-0.231 ± 0.69	-0.474 ± 0.021
AAAGUGCUUCUCUUUGGUGGGUU	-1.14 ± 0.07	-0.144 ± 0.11
CUGGAUGGCUCCUCCAUGUCU	0.547 ± 0.21	-0.772 ± 0.095
AGGGCCCCCCCUCAAUCCUGU	1.69 ± 0.94	0.259 ± 0.1
CACUCAGCCUUGAGGGCACUUUC	-0.36 ± 0.51	1.02 ± 0.045
AGCUCGGUCUGAGGCCCCUCAG	1.38 ± 0.13	-1.1 ± 0.24
GAGUGCCUUCUUUUGGAGCGU	-0.314 ± 0.76	-0.822 ± 0.14
UUUCAAGCCAGGGGGCGUUUUUC	0.765 ± 0.45	0.885 ± 0.064
AGUGGGGAACCCUUCCAUGAGGA	-0.516 ± 0.47	-2.85 ± 0.1
AACACACCUGGUUAACCUCUUU	-1.14 ± 0.07	0.254 ± 0.15
CUCCAGAGGGAAGUACUUUCU	-1.38 ± 1.7	-1.33 ± 0.13
AAACAAACAUGGUGCACUUCUUU	-1.38 ± 0.64	-0.235 ± 0.099

Reference: the supplement of paper PMC3621838
